Reference: paper PMC5557811 (Scientific Reports, 2017)
“Also recorded” adds a separate entry of the source.

Assays:
[1] = test system: SDH activity of F. graminearum mitochondrial SQR (complex II); format: biochemical, Fusarium graminearum; conditions: absorbance 600 nm, 25 °C
[2] = test system: SDH activity of P. indica mitochondrial SQR (complex II); format: biochemical, Piriformospora indica
[3] = test system: SdhB; format: binding, Fusarium graminearum
[4] = test system: yeast strain Y2HGold; experiment: Bait toxicity test in yeast; format: cell-based, Saccharomyces cerevisiae; conditions: pGBKT7::Mtk vs pGBKT7 empty vector, growth on SDO/–Trp plates; data not shown
[5] = test system: Fusarium graminearum; conditions: read-out: IC50 against F. graminearum; cited from earlier work
[6] = test system: Fusarium graminearum; conditions: in vivo; cited from earlier work
[7] = test system: Blumeria graminis f. sp. hordei; conditions: cited from earlier work
From the text: (§1) Insects are well protected against pathogens by an immunity-related arsenal of effector molecules including antimicrobial peptides (AMPs). Some AMPs are active against a broad spectrum of microbes, whereas the activity of others is restricted to certain types of bacteria or fungi. Insects produce a large number of antifungal peptides to protect them against fungal pathogens and parasites, and these peptides often interact with intracellular targets to inhibit key physiological processes such as DNA and protein synthesis, cell cycle progression and metabolic activity[1]–[3]. AMPs therefore offe ...

[8] = test system: Piriformospora indica; conditions: cited from earlier work
From the text: as §1

[9] = test system: β(1,3)-glucanosyltransferase Gel1; conditions: cited from earlier work

Q: For “metchnikowin (HRHQGPIFDTRPSPFNPNQPRPGPIY; Metchnikowin synthetic; UniProt Q24395 27-52, looked up) [Mtk, 26-residue proline-rich linear antifungal peptide from Drosophila melanogaster; synthetic Mtk from Pepmic used in SDH assay]”, which “reduction in mitochondrial SDH activity, significance by concentration” value ([1]; Mtk 2, 1, 0.5, 0.25, 0.12 and 0.06 µM, all concentrations except the lowest, 30 min, vs control without Mtk, means of three independent experiments) is on record?
A: All concentrations except the lowest caused significant reductions

Q: And the “maximal inhibition of mitochondrial SDH activity” value ([1]; synthetic Mtk, tested at 0.06, 0.12, 0.25, 0.5, 1 and 2 µM, isolated mitochondria, DCIP colorimetric, kinetic 30 min, relative to control (0 µM peptide = 100%), mean of three independent experiments, in triplicate)?
A: up to 52%

Q: And the “reduction in mitochondrial SDH activity” value [2]?
A: unaffected; also recorded: no reduction was observed; also recorded: did not inhibit

Q: And the “YFP fluorescence of Mtk constructs without a fusion partner (auto-activation)” value ([3]; Mtk constructs with YFPCempty or YFPNempty, cytoplasm and nucleus)?
A: produced YFP fluorescence in both the cytoplasm and nucleus

Q: And the “YFP fluorescence on co-expression of Mtk and SdhB” value ([3]; Nicotiana benthamiana leaves, 3 days after injection, Mtk and SdhB YFP fusions)?
A: did not result in detectable YFP fluorescence

Q: And the “toxicity towards yeast cells” value [4]?
A: not independently toxic

Q: And the IC50 [5]?
A: 1 µM

Q: And the “antifungal activity when expressed in barley” value (“antifungal activity when” below) [6]?
A: acts specifically against

Q: What about the “antifungal activity when” value [7] of the same substance?
A: acts specifically against

Q: And the “antifungal activity when” value [8]?
A: inactive

Q: And the “interference with F. graminearum cell wall biosynthesis by targeting Gel1” value [9]?
A: interferes with F. graminearum cell wall biosynthesis
